Experiment: mn = molality of the nth substance listed, in mol/kg
Conditions: 100 kPa, Liquid; for speed of sound: Frequency=3 MHz, Sing-around technique in a fixed-path interferometer; for mass density: Vibrating tube method

C[N+](C)(C)CC(=O)O.[Cl-] [betaine hydrochloride] + O
Conditions	mass density, 293.15 K [kg/m3]	mass density, 298.15 K [kg/m3]	mass density, 303.15 K [kg/m3]	mass density, 308.15 K [kg/m3]	mass density, 313.15 K [kg/m3]	speed of sound, 293.15 K [m/s]	speed of sound, 298.15 K [m/s]	speed of sound, 303.15 K [m/s]	speed of sound, 308.15 K [m/s]	speed of sound, 313.15 K [m/s]
m1 = 0.00988	998.597	997.445	996.042	994.425	992.605	1483.8	1497.7	1510	1520.7	1529.8
m1 = 0.02034	998.988	997.829	996.428	994.806	992.98	1484.8	1498.7	1511	1521.7	1530.7
m1 = 0.03199	999.418	998.253	996.847	995.225	993.389	1486	1499.8	1512.1	1522.8	1531.8
m1 = 0.03929	999.672	998.509	997.099	995.477	993.638	1486.6	1500.5	1512.8	1523.5	1532.4
m1 = 0.04992	1000.05	998.883	997.471	995.846	993.998	1487.6	1501.3	1513.6	1524.4	1533.3
m1 = 0.05925	1000.37	999.196	997.795	996.165	994.316	1488.4	1502.3	1514.2	1525.1	1534.1

Source: the NIST ThermoML archive (doi:10.1016/j.jct.2014.05.015)
